Source: patent US20040072839A1, “1-Phenylalkylpiperazines” (priority 2002, published 2004)

Each compound was assayed against T1, human 5-HT1A-serotonergic receptor (Homo sapiens, UniProt P08908) (assay: Radioligand binding to recombinant 5-HT1A receptors ([3H]8-OH-DPAT, HeLa cell membranes)). Details: 1 nM [3H]8-OH-DPAT; Ki from IC50 by Cheng & Prusoff; read-out: Ki, binding affinity for 5-HT1A receptors.
T1 construct: expressed in transfected cells; host or cells: HeLa (human), stably transfected; membrane preparation
T1 sequence (P08908 1-422): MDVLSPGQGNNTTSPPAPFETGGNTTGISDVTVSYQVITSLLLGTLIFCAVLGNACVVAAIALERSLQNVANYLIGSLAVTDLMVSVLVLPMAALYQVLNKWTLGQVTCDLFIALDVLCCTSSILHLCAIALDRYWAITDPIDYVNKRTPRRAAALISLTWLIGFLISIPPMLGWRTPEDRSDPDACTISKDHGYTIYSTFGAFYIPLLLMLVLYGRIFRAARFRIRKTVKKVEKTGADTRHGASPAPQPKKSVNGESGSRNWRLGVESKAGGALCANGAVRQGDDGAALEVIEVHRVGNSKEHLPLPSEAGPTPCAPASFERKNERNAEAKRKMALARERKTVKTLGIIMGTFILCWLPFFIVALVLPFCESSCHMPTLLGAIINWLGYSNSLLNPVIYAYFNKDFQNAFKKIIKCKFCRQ
Protocol: Genomic clone coding for the human 5-HT1A-serotonergic receptor was stably transfected in a human cell line (HeLa). HeLa cells were grown as monolayers in Dulbecco's modified Eagle medium (DMEM), containing 10% foetal bovine serum, gentamycin (0.1 mg/ml) and 5% carbon dioxide, at 37° C. The cells were detached from the growth flask at 95% confluence by a cell scraper and were lysed in cold 5 mM Tris and 5 mM EDTA buffer (pH 7.4). The homogenates were centrifuged at 40000×g×20 minutes and the pellets were resuspended in a small volume of cold 5 mM Tris and 5 mM EDTA buffer (pH 7.4) and immediately frozen and stored at −70° C. until use. On the day of experiment, the cell membranes were resuspended in incubation buffer: 50 mM Tris HCl (pH 7.4), 2.5 mM MgCl2, […] (Fargin et al., Nature 335, 358-360, 1988). The membranes were incubated in a final volume of 1 ml for 30 minutes at 30° C. with 1 nM [^3H]8-OH-DPAT, in the absence or presence of the test compounds. Non-specific binding was determined in the presence of 10 μM 5-HT. Incubation was stopped by addition of cold Tris-HC1 buffer and rapid filtration through a 0.2%-polyethyleneimine-pretreated Whatman-GF/B or Schleicher-&-Schuell-GF52 filter.
The affinities of the tested compounds were evaluated as inhibition of specific binding of the radioligand to 5-HT1A receptors (IC50) by using the non-linear curve-fitting program Allfit (De Lean et al., Am. J. Physiol. 235, E97-E102 (1978). The IC50 value was converted to an affinity constant (Ki) by the equation of Cheng & Prusoff (Cheng Y. C., Prusoff W. H., Biochem. Pharmacol. 22, 3099-3108 (1973)).

SMILES	Ki
CC(O)C(CCN1CCN(c2cccc3c2OCCO3)CC1)c1ccccc1OC(F)(F)F (stereo not shown) [Example 5, 1-[5-(2,3-Dihydro-1,4-benzodioxinyl)]-4-[4-hydroxy-3-(2-trifluoromethoxyphenyl)pentyl]piperazine]	8.31 nM
COc1cc(F)ccc1N1CCN(CCC(c2ccccc2)C(OC)C2CCCCC2)CC1 (stereo not shown) [Example 18, 1-(4-Cyclohexyl-4-methoxy-3-phenylbutyl)-4-(4-fluoro-2-methoxyphenyl)piperazine]	0.81 nM
COC(C1CCCCC1)C(CCN1CCN(c2cccc3c2OCCO3)CC1)c1ccccc1 (stereo not shown) [Example 17, 1-(4-cyclohexyl-4-methoxy-3-phenylbutyl)-4-[5-(2,3-dihydro-1,4-benzodioxinyl)]piperazine]	0.64 nM
CCCC(OC)C(CCN1CCN(c2cccc3c2OCCO3)CC1)c1ccccc1 (stereo not shown) [Example 10, 1-[5-(2,3-Dihydro-1,4-benzodioxinyl)]-4-[(4-methoxy-3-phenyl)heptyl]piperazine]	1.68 nM
C=CC(OC)C(CCN1CCN(c2cccc3c2OCCO3)CC1)c1ccccc1OC(F)(F)F (stereo not shown) [Example 9, 1-[5-(2,3-Dihydro-1,4-benzodioxinyl)]-4-[4-methoxy-3-(2-trifluoromethoxyphenyl)-5-hexenyl]piperazine]	1.9 nM
CCC(O)C(CCN1CCN(c2cccc3c2OCCO3)CC1)c1ccccc1OC(F)(F)F (stereo not shown) [Example 6, 1-[5-(2,3-Dihydro-1,4-benzodioxinyl)]-4-[4-hydroxy-3-(2-trifluoromethoxyphenyl)hexyl]piperazine]	3.66 nM
COC(C)C(CCN1CCN(c2cccc3c2OCCO3)CC1)c1ccccc1 (stereo not shown) [Example 11, 1-[5-(2,3-Dihydro-1,4-benzodioxinyl)]-4-[(4-methoxy-3-phenyl)pentyl]piperazine]	3.65 nM
CCCOC(CCC)C(CCN1CCN(c2cccc3c2OCCO3)CC1)c1ccccc1 (stereo not shown) [Example 12, 1-[5-(2,3-Dihydro-1,4-benzodioxinyl)]-4-[(4-propoxy-3-phenyl)heptyl]piperazine]	3.01 nM
N#Cc1ccccc1[C@@H](CCN1CCN(c2cccc3c2OCCO3)CC1)[C@@H](O)C1CCCCC1 (racemic) [Example 14, (RS,SR)-1-[3-(2-Cyanophenyl)-4-cyclohexyl-4-hydroxybutyl]-4-[5-(2,3-dihydro-1,4-benzodioxinyl)]piperazine]	0.401 nM
N#Cc1ccccc1C(CCN1CCN(c2cccc3c2OCCO3)CC1)C(O)C1CCCCC1 (racemic) [Example 14b, (SR)-1-[3-(2-Cyanophenyl)-4-cyclohexyl-4-hydroxybutyl]-4-[5-(2,3-dihydro-1,4-benzodioxinyl)]piperazine]	0.965 nM
COc1cc(F)ccc1N1CCN(CCC(C(=O)C2CCCCC2)c2ccccc2C#N)CC1 (stereo not shown) [Example 15, 1-[3-(2-Cyanophenyl)-4-cyclohexyl-4-oxobutyl]-4-(4-fluoro-2-methoxyphenyl)piperazine]	1.69 nM
N#Cc1ccccc1C(CCN1CCN(c2cccc3c2OCCO3)CC1)C(O)C1CCCCC1 (racemic) [Example 14a, (RS)-1-[3-(2-Cyanophenyl)-4-cyclohexyl-4-hydroxybutyl]-4-[5-(2,3-dihydro-1,4-benzodioxinyl)]piperazine]	0.878 nM
N#Cc1ccccc1C(CCN1CCN(c2cccc3c2OCCO3)CC1)C(=O)C1CCCCC1 (stereo not shown) [Example 13, 1-[3-(2-Cyanophenyl)-4-cyclohexyl-4-oxobutyl]-4-[5-(2,3-dihydro-1,4-benzodioxinyl)]piperazine]	0.53 nM
CCOC(C1CCCCC1)C(CCN1CCN(c2cccc3c2OCCO3)CC1)c1ccccc1 (stereo not shown) [Example 19, 1-(4-Cyclohexyl-4-ethoxy-3-phenylbutyl)-4-[5-(2,3-dihydro-1,4-benzodioxinyl)]piperazine]	0.69 nM

The remaining lines, values ahead:

Ki	SMILES
0.56 nM	CC(C)CC(O)C(CCN1CCN(c2cccc3c2OCCO3)CC1)c1ccccc1 (stereo not shown) [Example 36]
0.72 nM	COC(=O)O[C@@H](C1CCCCC1)[C@H](CCN1CCN(c2ccccc2OC)CC1)c1ccccc1F (racemic) [Example 46, (RS,SR) 1-[4-Cyclohexyl-3-(2-fluorophenyl)-4-methoxycarbonyloxybutyl]-4-(2-methoxyphenyl)piperazine]
2.92 nM	C=CC(O)C(CCN1CCN(c2cccc3c2OCCO3)CC1)c1ccccc1 (stereo not shown) [Example 28, 1-[5-(2,3-Dihydro-1,4-benzodioxinyl)]-4-(4-hydroxy-3-phenylhex-5-enyl]piperazine]
2.92 nM	CN(C)C(=O)c1ccccc1C(CCN1CCN(c2cccc3c2OCCO3)CC1)C(=O)C1CCCCC1 (stereo not shown) [Example 39, 1-[4-Cyclohexyl-3-(2-dimethylaminocarbonylphenyl)-4-oxobutyl]-4-[5-(2,3-dihydro-1,4-benzodioxinyl)]piperazine]
0.77 nM	C=CCOC(C1CCCCC1)C(CCN1CCN(c2cccc3c2OCCO3)CC1)c1ccccc1 (stereo not shown) [Example 21, 1-(4-Allyloxy-4-cyclohexyl-3-phenylbutyl)-4-[5-(2,3-dihydro-1,4-benzodioxinyl)]piperazine]
2.62 nM	CCC(O)C(CCN1CCN(c2cccc3c2OCCO3)CC1)c1ccccc1 (stereo not shown) [Example 26, 1-[5-(2,3-Dihydro-1,4-benzodioxinyl)]-4-(4-hydroxy-3-phenyl)hexylpiperazine]
5.43 nM	CC(O)C(CCN1CCN(c2cccc3c2OCCO3)CC1)c1ccccc1 (stereo not shown) [Example 30]
3.19 nM	CCOC(C1CCCCC1)C(CCN1CCN(c2ccc(F)cc2OC)CC1)c1ccccc1 (stereo not shown) [Example 20, 1-(4-Cyclohexyl-4-ethoxy-3-phenylbutyl)-4-(4-fluoro-2-methoxyphenyl)piperazine]
4.87 nM	COc1cc(F)ccc1N1CCN(CCC(c2ccccc2C(=O)N(C)C)C(O)C2CCCCC2)CC1 (stereo not shown) [Example 42, 1-[4-Cyclohexyl-3-(2-dimethylaminocarbonylphenyl)-4-hydroxybutyl]-4-(4-fluoro-2-methoxyphenyl)piperazine]
1.67 nM	C=CCC(O)C(CCN1CCN(c2cccc3c2OCCO3)CC1)c1ccccc1 (stereo not shown) [Example 34, 1-[5-(2,3-Dihydro-1,4-benzodioxinyl)]-4-(4-hydroxy-3-phenylhept-6-enyl)piperazine]
0.63 nM	C#CCOC(C1CCCCC1)C(CCN1CCN(c2cccc3c2OCCO3)CC1)c1ccccc1 (stereo not shown) [Example 23, 1-(4-Cyclohexyl-3-phenyl-4-propargyloxybutyl)-4-[5-(2,3-dihydro-1,4-benzodioxinyl)]piperazine]
5.03 nM	OCC(CCN1CCN(c2cccc3c2OCCO3)CC1)c1ccccc1 (stereo not shown) [Example 37, 1-[5-(2,3-dihydro-1,4-benzodioxinyl)]-4-(4-hydroxy-3-phenylbutyl]piperazine]
1.08 nM	CC(C)C(O)C(CCN1CCN(c2cccc3c2OCCO3)CC1)c1ccccc1 (stereo not shown) [Example 29]
1.18 nM	CCCOC(C1CCCCC1)C(CCN1CCN(c2cccc3c2OCCO3)CC1)c1ccccc1 (stereo not shown) [Example 25, 1-(4-Cyclohexyl-3-phenyl-4-propoxybutyl)-4-[5-(2,3-dihydro-1,4-benzodioxinyl)]piperazine]
3.57 nM	CC=CC(O)C(CCN1CCN(c2cccc3c2OCCO3)CC1)c1ccccc1 (stereo not shown) [Example 32, 1-[5-(2,3-Dihydro-1,4-benzodioxinyl)]-4-(4-hydroxy-3-phenylhept-5-enyl)piperazine]
1.14 nM	O=C(C1CCCCC1)C(CCN1CCN(c2cccc3[nH]ccc23)CC1)c1ccccc1OC(F)(F)F (stereo not shown) [Example 44, 1-[4-Cyclohexyl-3-(2-trifluoromethoxyphenyl)-4-oxobutyl]-4-(4-indolyl)piperazine]
1.84 nM	CN(C)C(=O)c1ccccc1C(CCN1CCN(c2cccc3c2OCCO3)CC1)C(O)C1CCCCC1 (stereo not shown) [Example 40, 1-[4-Cyclohexyl-3-(2-dimethylaminocarbonylphenyl)-4-hydroxybutyl]-4-[5-(2,3-dihydro-1,4-benzodioxinyl)]piperazine]
5.03 nM	C#CC(O)C(CCN1CCN(c2cccc3c2OCCO3)CC1)c1ccccc1 (stereo not shown) [Example 33, 1-[5-(2,3-Dihydro-1,4-benzodioxinyl)]-4-(4-hydroxy-3-phenylhex-5-ynyl)piperazine]
2.03 nM	C=CCOC(C1CCCCC1)C(CCN1CCN(c2ccc(F)cc2OC)CC1)c1ccccc1 (stereo not shown) [Example 22, 1-(4-Allyloxy-4-cyclohexyl-3-phenylbutyl)-4-(4-fluoro-2-methoxyphenyl)piperazine]
1.09 nM	CCCC(O)C(CCN1CCN(c2cccc3c2OCCO3)CC1)c1ccccc1 (stereo not shown) [Example 27]
